# Reference: PubChem BioAssay (NCI)
#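 Dose response: 5 concentrations. Exposure: 48 h. Format: 96-well plates. Endpoint: linear interpolation; highest concentration if not reached. GI50 marks 50% less growth. TGI is the concentration that stops growth completely.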
# Legend:
# Experiment in all cases: NCI-60 cell line screen, 48 h
# TK-10 renal = tested on: TK-10 renal
# HCT-15 colon = tested on: HCT-15 colon
# PC-3 prostate = tested on: PC-3 prostate
# MOLT-4 leukemia = tested on: MOLT-4 leukemia
# HOP-62 NSCLC = tested on: HOP-62 NSCLC
# CAKI-1 renal = tested on: CAKI-1 renal
# MCF7 breast = tested on: MCF7 breast
# SN12C renal = tested on: SN12C renal
# HL-60(TB) leukemia = tested on: HL-60(TB) leukemia
# 786-0 renal = tested on: 786-0 renal
# CCRF-CEM leukemia = tested on: CCRF-CEM leukemia
# SW-620 colon = tested on: SW-620 colon
# OVCAR-4 ovarian = tested on: OVCAR-4 ovarian
# U251 CNS = tested on: U251 CNS
# HCT-116 colon = tested on: HCT-116 colon
# SNB-19 CNS = tested on: SNB-19 CNS
# RPMI-8226 leukemia = tested on: RPMI-8226 leukemia
# SK-MEL-28 melanoma = tested on: SK-MEL-28 melanoma
# SNB-75 CNS = tested on: SNB-75 CNS
# OVCAR-8 ovarian = tested on: OVCAR-8 ovarian
# HCC-2998 colon = tested on: HCC-2998 colon
# OVCAR-3 ovarian = tested on: OVCAR-3 ovarian
# IGROV1 ovarian = tested on: IGROV1 ovarian
# SK-OV-3 ovarian = tested on: SK-OV-3 ovarian
# UO-31 renal = tested on: UO-31 renal
# HS 578T breast = tested on: HS 578T breast
# UACC-62 melanoma = tested on: UACC-62 melanoma
# K-562 leukemia = tested on: K-562 leukemia
# NCI-H23 lung = tested on: NCI-H23 lung
# SF-268 CNS = tested on: SF-268 CNS
# NCI/ADR-RES ovarian = tested on: NCI/ADR-RES ovarian
# A549 NSCLC = tested on: A549 NSCLC
# M14 melanoma = tested on: M14 melanoma
# HT29 colon = tested on: HT29 colon
# DU-145 prostate = tested on: DU-145 prostate
# MDA-MB-435 = tested on: MDA-MB-435
# NCI-H460 lung = tested on: NCI-H460 lung
# SF-295 CNS = tested on: SF-295 CNS
# SK-MEL-2 melanoma = tested on: SK-MEL-2 melanoma
# KM12 colon = tested on: KM12 colon
# NCI-H522 lung = tested on: NCI-H522 lung
# BT-549 breast = tested on: BT-549 breast
# ACHN renal = tested on: ACHN renal
# SF-539 CNS = tested on: SF-539 CNS
# COLO 205 colon = tested on: COLO 205 colon
# SK-MEL-5 melanoma = tested on: SK-MEL-5 melanoma
# MDA-MB-231 breast = tested on: MDA-MB-231 breast
# HOP-92 NSCLC = tested on: HOP-92 NSCLC
# UACC-257 melanoma = tested on: UACC-257 melanoma
# A498 renal = tested on: A498 renal
# EKVX NSCLC = tested on: EKVX NSCLC
# NCI-H226 lung = tested on: NCI-H226 lung
# MALME-3M melanoma = tested on: MALME-3M melanoma
# T-47D breast = tested on: T-47D breast
# SR leukemia = tested on: SR leukemia
# OVCAR-5 ovarian = tested on: OVCAR-5 ovarian
# LOX IMVI melanoma = tested on: LOX IMVI melanoma
smiles,measurement,setting,value
CCCCCCCCSC1=CC(=O)c2nc3ccccc3c3ccnc1c23,GI50,TK-10 renal,> 100 µM
same,TGI,TK-10 renal,> 100 µM
same,GI50,HCT-15 colon,38.4 µM
same,TGI,HCT-15 colon,> 100 µM
same,GI50,PC-3 prostate,77.9 µM
same,TGI,PC-3 prostate,> 100 µM
same,GI50,MOLT-4 leukemia,6.03 µM
same,TGI,MOLT-4 leukemia,> 100 µM
same,GI50,HOP-62 NSCLC,> 100 µM
same,TGI,HOP-62 NSCLC,> 100 µM
same,GI50,CAKI-1 renal,59.8 µM
same,TGI,CAKI-1 renal,> 100 µM
same,GI50,MCF7 breast,20.2 µM
same,TGI,MCF7 breast,57.4 µM
same,GI50,SN12C renal,14 µM
same,TGI,SN12C renal,> 100 µM
same,GI50,HL-60(TB) leukemia,16.3 µM
same,TGI,HL-60(TB) leukemia,> 100 µM
same,GI50,786-0 renal,> 100 µM
same,TGI,786-0 renal,> 100 µM
same,GI50,CCRF-CEM leukemia,60.7 µM
same,TGI,CCRF-CEM leukemia,> 100 µM
same,GI50,SW-620 colon,> 100 µM
same,TGI,SW-620 colon,> 100 µM
same,GI50,OVCAR-4 ovarian,19.1 µM
same,TGI,OVCAR-4 ovarian,> 100 µM
same,GI50,U251 CNS,92.6 µM
same,TGI,U251 CNS,> 100 µM
same,GI50,HCT-116 colon,43.1 µM
same,TGI,HCT-116 colon,> 100 µM
same,GI50,SNB-19 CNS,> 100 µM
same,TGI,SNB-19 CNS,> 100 µM
same,GI50,RPMI-8226 leukemia,60.2 µM
same,TGI,RPMI-8226 leukemia,> 100 µM
same,GI50,SK-MEL-28 melanoma,42.7 µM
same,TGI,SK-MEL-28 melanoma,> 100 µM
same,GI50,SNB-75 CNS,> 100 µM
same,TGI,SNB-75 CNS,> 100 µM
same,GI50,OVCAR-8 ovarian,> 100 µM
same,TGI,OVCAR-8 ovarian,> 100 µM
same,GI50,HCC-2998 colon,> 100 µM
same,TGI,HCC-2998 colon,> 100 µM
same,GI50,OVCAR-3 ovarian,19 µM
same,TGI,OVCAR-3 ovarian,> 100 µM
same,GI50,IGROV1 ovarian,> 100 µM
same,TGI,IGROV1 ovarian,> 100 µM
same,GI50,SK-OV-3 ovarian,> 100 µM
same,TGI,SK-OV-3 ovarian,> 100 µM
same,GI50,UO-31 renal,49.5 µM
same,TGI,UO-31 renal,> 100 µM
same,GI50,HS 578T breast,> 100 µM
same,TGI,HS 578T breast,> 100 µM
same,GI50,UACC-62 melanoma,42 µM
same,TGI,UACC-62 melanoma,> 100 µM
same,GI50,K-562 leukemia,27.4 µM
same,TGI,K-562 leukemia,> 100 µM
same,GI50,NCI-H23 lung,58.2 µM
same,TGI,NCI-H23 lung,> 100 µM
same,GI50,SF-268 CNS,24.7 µM
same,TGI,SF-268 CNS,> 100 µM
same,GI50,NCI/ADR-RES ovarian,97.4 µM
same,TGI,NCI/ADR-RES ovarian,> 100 µM
same,GI50,A549 NSCLC,83.2 µM
same,TGI,A549 NSCLC,> 100 µM
same,GI50,M14 melanoma,> 100 µM
same,TGI,M14 melanoma,> 100 µM
same,GI50,HT29 colon,> 100 µM
same,TGI,HT29 colon,> 100 µM
same,GI50,DU-145 prostate,> 100 µM
same,TGI,DU-145 prostate,> 100 µM
same,GI50,MDA-MB-435,41.7 µM
same,TGI,MDA-MB-435,> 100 µM
same,GI50,NCI-H460 lung,26.3 µM
same,TGI,NCI-H460 lung,> 100 µM
same,GI50,SF-295 CNS,> 100 µM
same,TGI,SF-295 CNS,> 100 µM
same,GI50,SK-MEL-2 melanoma,> 100 µM
same,TGI,SK-MEL-2 melanoma,> 100 µM
same,GI50,KM12 colon,> 100 µM
same,TGI,KM12 colon,> 100 µM
same,GI50,NCI-H522 lung,62.8 µM
same,TGI,NCI-H522 lung,> 100 µM
same,GI50,BT-549 breast,> 100 µM
same,TGI,BT-549 breast,> 100 µM
same,GI50,ACHN renal,52.2 µM
same,TGI,ACHN renal,> 100 µM
same,GI50,SF-539 CNS,> 100 µM
same,TGI,SF-539 CNS,> 100 µM
same,GI50,COLO 205 colon,> 100 µM
same,TGI,COLO 205 colon,> 100 µM
same,GI50,SK-MEL-5 melanoma,98.8 µM
same,TGI,SK-MEL-5 melanoma,> 100 µM
same,GI50,MDA-MB-231 breast,5.94 µM
same,TGI,MDA-MB-231 breast,> 100 µM
same,GI50,HOP-92 NSCLC,80 µM
same,TGI,HOP-92 NSCLC,> 100 µM
same,GI50,UACC-257 melanoma,41.1 µM
same,TGI,UACC-257 melanoma,> 100 µM
same,GI50,A498 renal,> 100 µM
same,TGI,A498 renal,> 100 µM
same,GI50,EKVX NSCLC,> 100 µM
same,TGI,EKVX NSCLC,> 100 µM
same,GI50,NCI-H226 lung,0.544 µM
same,TGI,NCI-H226 lung,96.8 µM
same,GI50,MALME-3M melanoma,83.3 µM
same,TGI,MALME-3M melanoma,> 100 µM
same,GI50,T-47D breast,84.5 µM
same,TGI,T-47D breast,> 100 µM
same,GI50,SR leukemia,22.7 µM
same,TGI,SR leukemia,> 100 µM
same,GI50,OVCAR-5 ovarian,> 100 µM
same,TGI,OVCAR-5 ovarian,> 100 µM
same,GI50,LOX IMVI melanoma,> 100 µM
same,TGI,LOX IMVI melanoma,> 100 µM
